Measurements: patent US20240093191A1, “COMPOSITIONS AND METHODS FOR TREATING DISEASE ASSOCIATED WITH DUX4 OVEREXPRESSION” (RESEARCH INSTITUTE AT NATIONWIDE CHILDREN'S HOSPITAL, priority 2021, published 2024)

What was measured:
mir-675-5p [1] = assay: ddPCR of mir-675-5p in drug-treated DUX4-transfected HEK293 cells; format: cell-based, human; conditions: vs ethanol vehicle
Procedure: (§1) Digital Droplet PCR (ddPCR). For mir-675 and mi405 constructs, RNA extraction was carried out as described for QPCR above. For cDNA synthesis, the TaqMan advanced cDNA synthesis kit (Thermo Fisher) was used and cDNA was prepared by following manufacturer's instructions. ddPCR was carried out using 1× ddPCR Supermix for probes (No dUTP) (Bio-Rad), 1× commercially available mir-675 advanced TaqMan probe, or a custom made mi405 advanced TaqMan probe (ThermoFisher) and 50 ng of cDNA. For DUX4 cDNA synthesis, the High-Capacity cDNA Reverse Transcription Kit (Applied Biosystems) was used according to manufacturer's instructions. Within the same cDNA reaction, 1×RT random hexamer primers and 25 pmoles of the Oligo(dT) primer were used to generate cDNA for DUX4 and DUX4-responsive biomarkers and for mouse Rpl13A, used as a reference gene. To quantify DUX4, the ddPCR reaction mixture (20 μL) contained 1× ddPCR Evagreen Supermix (Bio-Rad), 1 μM of forward and reverse DUX4 primers (Sharma et al., J Genet Syndr Gene Ther 2016 August; 7(4):303. doi: 10.4172/2157-7412.1000303. Epub 2016 Aug. 8), and 50 ng of cDNA. To quantify Rpl13A and DUX4-responsive biomarkers (Trim36 and Wfdc3), the 1× ddPCR Supermix for probes (No dUTP) and TaqMan specific probes were used for each of the genes. Droplets were generated using the Automatic Droplet generator QX200 AutoDG (Bio-Rad), the reactions were amplified in a C1000 Touch™ Thermal Cycler with 96-Deep Well Reaction Module (Bio-Rad). Cycling conditions were set up following the QX200 ddPCR Evagreen Supermix protocol. All assays are compatible with an annealing temperature of 58° C. Droplets were then read using the QX200 droplet reader (Bio-Rad). Finally, data were analyzed using the QuantaSoft analysis software (Bio-Rad). For quantification, each reaction of 20 μL was estimated to give at least 10,000 acceptable droplets.
(§2) Three small molecule candidates (β-estradiol, a combination of β-estradiol+medroxyprogesterone acetate (MPA), and melatonin) were tested for their ability to upregulate mir-675-5p in HEK293 cells and in human myotubes. HEK293 cells normally express minimal amounts of mir-675. […] 24 hours after treatment, mir-675-5p expression was measured by Droplet Digital PCR (ddPCR).
In FIG. 28, β-estradiol, medroxyprogesterone acetate (MPA) and melatonin increased mir-675 expression and reduced the expression of DUX4 and DUX4-induced biomarker TRIM43 in HEK293 cells. […] The effects of these drugs were evaluated by comparison to ethanol (vehicle)-treated cells. […] The quantification (percent change) of gene expression from HEK293 cells treated with β-estradiol, β-estradiol+MPA, or melatonin was measured using droplet digital PCR (ddPCR) and is reported in Table 3 set out below. […]

DUX4 [2] = assay: ddPCR of transfected DUX4 in drug-treated HEK293 cells; format: cell-based, human; conditions: vs ethanol vehicle
Procedure: as §1, with “Cycling conditions were set up following the QX200 ddPCR Evagreen Supermix protocol. All assays are compatible with an annealing temperature of 58° C.” left out
as §2, with “myotubes.” for “myotubes. HEK293 cells normally express minimal amounts of mir-675.”, “(ddPCR). […]” for “(ddPCR).”

TRIM43 [3] = assay: ddPCR of TRIM43 in drug-treated DUX4-transfected HEK293 cells; format: cell-based, human; conditions: for TRIM43 (% decrease): vs ethanol vehicle
Procedure: as §1
Three small molecule candidates (β-estradiol, a combination of β-estradiol+medroxyprogesterone acetate (MPA), and melatonin) were tested for their ability to upregulate mir-675-5p in HEK293 cells and in human myotubes. HEK293 cells normally express minimal amounts of mir-675. HEK293 cells were treated with (1) 20 μM β-estradiol alone; (2) 10 μM or 20 μM β-estradiol+MPA; or (3) 20 μM or 40 μM melatonin. 24 hours after treatment, mir-675-5p expression was measured by Droplet Digital PCR (ddPCR).
In FIG. 28, β-estradiol, medroxyprogesterone acetate (MPA) and melatonin increased mir-675 expression and reduced the expression of DUX4 and DUX4-induced biomarker TRIM43 in HEK293 cells. Droplet Digital PCR (ddPCR) was carried out to measure mir-675-5p, DUX4 and TRIM43 levels. HEK293 cells were transfected with DUX4 and were treated with two drugs individually (i.e., β-estradiol and melatonin) or with a combination of β-estradiol and MPA at 10, 20 or 40 μM at the time of transfection. The effects of these drugs were evaluated by comparison to ethanol (vehicle)-treated cells. Numbers correspond to n=3 independent experiments (ANOVA, P<0.0001). The quantification (percent change) of gene expression from HEK293 cells treated with β-estradiol, β-estradiol+MPA, or melatonin was measured using droplet digital PCR (ddPCR) and is reported in Table 3 set out below. Anti-mir-675 is an antagomiR targeting the mature sequence of mir-675-5p, inhibiting its function as inhibitor of DUX4 gene expression. CMV.DUX4-mir-675Res is an expression plasmid encoding a DUX4 mutant sequence. […]

mir-675-5p [4] = assay: ddPCR of mir-675-5p in drug-treated FSHD myotubes; format: cell-based, human; conditions: 20 μM
Source text: (§3) Primary Cell Culture. 15A, 17A sand 18A FSHD human myoblasts and 15V control human myoblasts were provided by the UMMS Wellstone Center for FSHD and have been previously characterized [Jones et al., Hum. Mol. Genet. 21: 4419-4430 (2012)]. Previously immortalized 15A cell lines have a single 4qA permissive allele. […] 15V cell lines have two 4qB non-permissive alleles. Cells were propagated by feeding them every two days with new LHCN medium [4:1 DMEM:Medium 199 (Gibco) supplemented with 15% characterized FBS (Corning), 0.02 M HEPES (Thermo Fisher), 0.03 μg/mL ZnSO4 (Honeywell Fluka), 1.4 μg/mL Vitamin B12 (Sigma-Aldrich), 0.055 μg/mL dexamethasone (Sigma-Aldrich), 1% antibiotics/antimycotics (Gibco), 2.5 ng/mL hepatocyte growth factor (Millipore) and 10 ng/mL basic fibroblast growth factor (Millipore)]. For differentiation, myoblasts were switched to a differentiation medium [4:1 DMEM: Medium 199 (Gibco) supplemented with 15% KnockOut Serum Replacement (ThermoFisher Scientific), 2 mM L-glutamine (Gibco), 1% antibiotics/antimycotics (Gibco), 1 mM sodium pyruvate (Gibco) and 20 mM HEPES (ThermoFisher Scientific)] when cells were at >90% confluency. Before adding differentiation medium, cells were washed with PBS (Gibco). Cells were seeded with new differentiation medium every three days for up to 7 days. To detach cells, TrypLE™ Express, phenol red (ThermoFisher Scientific) was used.
as §1
(§4) Next, the effects of the three treatment regimens were tested on the expression of endogenous mir-675-5p, DUX4 and TRIM43 in 15A, 17A and 18A FSHD differentiated muscle cell lines (myotubes) (FIG. 29 and Table 4). […] Mol. Genet. 21: 4419-30 (2012)]. In FIG. 29, β-estradiol, medroxyprogesterone acetate (MPA) and melatonin increased mir-675 expression and reduced the expression of DUX4 and the DUX4-induced biomarker TRIM43 in three FSHD affected myotube lines. Droplet digital PCR (ddPCR) was used to measure mir-675-5p, DUX4 and TRIM43 levels in 15A (A), 17A (B) and 18A (C) FSHD affected myotubes five days after differentiation. […]

DUX4 [5] = assay: ddPCR of DUX4 in drug-treated FSHD myotubes; format: cell-based, human; conditions: for DUX4 (% decrease): 20 μM
Source text: as §3, §1, §4

TRIM43 [6] = assay: ddPCR of TRIM43 in drug-treated FSHD myotubes; format: cell-based, human; conditions: for TRIM43 (% decrease): 20 μM; for reduction of TRIM43 expression: 18A FSHD myotubes, 40 μM, added 4th day, collected 5th day of differentiation
Source text: as §3, §1, §4

mir-675 = conditions: published gene expression studies; cited from earlier work
ZSCAN4 = assay: ddPCR of ZSCAN4 in drug-treated 18A FSHD myotubes; format: cell-based, human; conditions: 40 μM, added 4th day, collected 5th day of differentiation
Procedure: 18A FSHD affected muscles cell lines were treated with increasing concentrations of Pyrazinamide or Sorafenib at the 4th day of differentiation into myotubes. Cells were collected at the 5th day of differentiation. RNA was extracted and ddPCR gene expression analysis on DUX4, TRIM43 and ZSCAN4 was carried out. As a result, 40 μM of Pyrazinamide reduced TRIM43 and ZSCAN4 expression by 35±7% (ANOVA, P=0.0378, N=3 independent experiments) and 42±6% (ANOVA, P=0.0043, N=3 independent experiments), respectively (FIG. 35). Sorafenib reduced DUX4, TRIM43 and ZSCAN4 expression in a dose dependent manner, where it reached maximum inhibition when used at a concentration of 40 μM. At the latter, Sorafenib reduced DUX4, TRIM43 and ZSCAN4 expression by 40±10% (ANOVA, P=0.0486, N=3 independent experiments), 70±4% (ANOVA, P=0.0003, N=3 independent experiments) and 68±3% (ANOVA, P=0.0001, N=3 independent experiments), respectively (FIG. 35).

COc1ccc2[nH]cc(CCNC(C)=O)c2c1 [Melatonin, melatonin]
mir-675-5p (% increase) (mir-675-5p [1]; 20 μM): 229 ± 53%
mir-675-5p (% increase) (mir-675-5p [1]; 40 μM): 246 ± 53%
DUX4 (% decrease) (DUX4 [2]; 20 μM): 90 ± 01%
DUX4 (% decrease) (DUX4 [2]; 40 μM): 93 ± 01%
+anti-mir-675 (300 nM) TRIM43 (% increase) (TRIM43 [3]; 20 μM, HEK293, co-transfected anti-mir-675 300 nM): 21 ± 01%
TRIM43 (% decrease) (TRIM43 [3]; 20 μM, HEK293): 52 ± 01%
TRIM43 (% decrease) (TRIM43 [3]; 40 μM, HEK293): 58 ± 01%
+CMV.DUX4-mir-675Res TRIM43 (% decrease) (TRIM43 [3]; 40 μM, HEK293 transfected with CMV.DUX4-mir-675Res): 0.1 ± 16%
mir-675-5p (% increase) (mir-675-5p [4]; 15A 5DD myotubes, N = 6): 44 ± 16 | *, %
mir-675-5p (% increase) (mir-675-5p [4]; 17A 5DD myotubes, N = 3): 48 ± 09 | **, %
mir-675-5p (% increase) (mir-675-5p [4]; 18A 5DD myotubes, N = 3): 154 ± 59 | *, %
DUX4 (% decrease) (DUX4 [5]; 15A 5DD myotubes, N = 6): 88 ± 40 | **, %
DUX4 (% decrease) (DUX4 [5]; 17A 5DD myotubes, N = 3): 55 ± 09 | *, %
DUX4 (% decrease) (DUX4 [5]; 18A 5DD myotubes, N = 3): 38 ± 17 | *, %
TRIM43 (% decrease) (TRIM43 [6]; 15A 5DD myotubes, N = 6): 75 ± 45 | *, %
TRIM43 (% decrease) (TRIM43 [6]; 17A 5DD myotubes, N = 3): 30 ± 12 | *, %
TRIM43 (% decrease) (TRIM43 [6]; 18A 5DD myotubes, N = 3): 70 + 15 | ***, %
mir-675 expression (mir-675): mir-675 was induced

CNC(=O)c1cc(Oc2ccc(NC(=O)Nc3ccc(Cl)c(C(F)(F)F)c3)cc2)ccn1 [Sorafenib, 4-[4-[[4-chloro-3-(trifluoromethyl)phenyl]carbamoylamino]phenoxy]-N-methylpyridine-2-carboxamide]
reduction of DUX4 expression (DUX4 [5]; 18A FSHD myotubes, 40 μM, added 4th day, collected 5th day of differentiation): 40±10%
reduction of TRIM43 expression (TRIM43 [6]): 70±4%
reduction of ZSCAN4 expression (ZSCAN4): 68±3%
mir-675 expression (mir-675): upregulated mir-675 expression

C[C@]12CC[C@@H]3c4ccc(O)cc4CC[C@H]3[C@@H]1CC[C@@H]2O [β-estradiol]
mir-675-5p (% increase) (mir-675-5p [1]; 10 μM): 22 ± 06%
mir-675-5p (% increase) (mir-675-5p [1]; 20 μM): 92 ± 34%
DUX4 (% decrease) (DUX4 [2]; 20 μM): significant decrease
TRIM43 (% decrease) (TRIM43 [3]; 20 μM, HEK293): significant decrease
mir-675-5p (% increase) (mir-675-5p [4]; 15A 5DD myotubes, N = 6): 47 ± 11 | *, %
mir-675-5p (% increase) (mir-675-5p [4]; 17A 5DD myotubes, N = 3): 38 ± 09 | *, %
mir-675-5p (% increase) (mir-675-5p [4]; 18A 5DD myotubes, N = 3): 382 ± 44 | ***, %
DUX4 (% decrease) (DUX4 [5]; 15A 5DD myotubes, N = 6): 70 ± 38 | *, %
DUX4 (% decrease) (DUX4 [5]; 17A 5DD myotubes, N = 3): 63 ± 19 | *, %
DUX4 (% decrease) (DUX4 [5]; 18A 5DD myotubes, N = 3): 49 ± 19 | *, %
TRIM43 (% decrease) (TRIM43 [6]; 15A 5DD myotubes, N = 6): 46 ± 40 | NS, %
TRIM43 (% decrease) (TRIM43 [6]; 17A 5DD myotubes, N = 3): 31 ± 12 | *, %
TRIM43 (% decrease) (TRIM43 [6]; 18A 5DD myotubes, N = 3): 57 ± 07 | ** , %

NC(=O)c1cnccn1 [Pyrazinamide, pyrazine-2-carboxamide]
reduction of TRIM43 expression (TRIM43 [6]): 35±7%
reduction of ZSCAN4 expression (ZSCAN4): 42±6%
mir-675 expression (mir-675): upregulated mir-675 expression
